O=C(O)c1ccc(O)c(O)c1
solubility (mole fraction)
Settings | 293.15 K | 298.15 K | 303.15 K | 308.15 K | 313.15 K | 318.15 K
in ethanol | 0.0302 | 0.041 | 0.0495 | 0.0665 | 0.0847 | 0.108
in ethyl acetate | 0.00478 | 0.00671 | 0.00906 | 0.013 | 0.0179 | 0.0233
in methanol | 0.0337 | 0.0451 | 0.0654 | 0.093 | 0.126 | 0.167
in methyl acetate | 0.00563 | 0.00843 | 0.0115 | 0.0167 | 0.0225 | 0.03

Reference: BigSolDB 2.1
